Legend:
[1] = target: PI3K-δ (PI3K(p1108/p857) (h)) (Homo sapiens, UniProt O00329); experiment: Evaluation of inhibitory activity against PI3K-δ (HTRF kinase assay); type: biochemical; settings: compound concentration 0.01 μM; read-out: EXP_VALUE(% Inhibition) PI3K-δ 0.01 μM
Summary of the method: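 HTRF read-out (665/620 nm ratio ×10000) used Eu-labelled anti-GST, GST-tagged GRP1 PH domain and streptavidin-allophycocyanin after EDTA/PIP3 stop.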

DNA-PK(h) = DNA-PK(h) (Homo sapiens, UniProt P78527); experiment: Evaluation of inhibitory activity against DNA-PK (HTRF kinase assay, GST-cMyc-p53 substrate); type: biochemical; settings: compound concentration 0.01 μM; read-out: EXP_VALUE(% Inhibition) DNA-PK(h) 0.01 μM
Summary of the method: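 Human DNA-PK with 50 μM GST-cMyc-p53 substrate; reaction started with Mg/ATP, run 30 min at room temperature, stopped with EDTA. Phospho-Ser15 p53 detected by HTRF (Eu anti-phospho-Ser15, d2 anti-GST), signal = 10000×(Em 665/Em 620).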

Chain of PI3K-δ (PI3K(p1108/p857) (h)) (O00329 whole entry, the tested form may be a part): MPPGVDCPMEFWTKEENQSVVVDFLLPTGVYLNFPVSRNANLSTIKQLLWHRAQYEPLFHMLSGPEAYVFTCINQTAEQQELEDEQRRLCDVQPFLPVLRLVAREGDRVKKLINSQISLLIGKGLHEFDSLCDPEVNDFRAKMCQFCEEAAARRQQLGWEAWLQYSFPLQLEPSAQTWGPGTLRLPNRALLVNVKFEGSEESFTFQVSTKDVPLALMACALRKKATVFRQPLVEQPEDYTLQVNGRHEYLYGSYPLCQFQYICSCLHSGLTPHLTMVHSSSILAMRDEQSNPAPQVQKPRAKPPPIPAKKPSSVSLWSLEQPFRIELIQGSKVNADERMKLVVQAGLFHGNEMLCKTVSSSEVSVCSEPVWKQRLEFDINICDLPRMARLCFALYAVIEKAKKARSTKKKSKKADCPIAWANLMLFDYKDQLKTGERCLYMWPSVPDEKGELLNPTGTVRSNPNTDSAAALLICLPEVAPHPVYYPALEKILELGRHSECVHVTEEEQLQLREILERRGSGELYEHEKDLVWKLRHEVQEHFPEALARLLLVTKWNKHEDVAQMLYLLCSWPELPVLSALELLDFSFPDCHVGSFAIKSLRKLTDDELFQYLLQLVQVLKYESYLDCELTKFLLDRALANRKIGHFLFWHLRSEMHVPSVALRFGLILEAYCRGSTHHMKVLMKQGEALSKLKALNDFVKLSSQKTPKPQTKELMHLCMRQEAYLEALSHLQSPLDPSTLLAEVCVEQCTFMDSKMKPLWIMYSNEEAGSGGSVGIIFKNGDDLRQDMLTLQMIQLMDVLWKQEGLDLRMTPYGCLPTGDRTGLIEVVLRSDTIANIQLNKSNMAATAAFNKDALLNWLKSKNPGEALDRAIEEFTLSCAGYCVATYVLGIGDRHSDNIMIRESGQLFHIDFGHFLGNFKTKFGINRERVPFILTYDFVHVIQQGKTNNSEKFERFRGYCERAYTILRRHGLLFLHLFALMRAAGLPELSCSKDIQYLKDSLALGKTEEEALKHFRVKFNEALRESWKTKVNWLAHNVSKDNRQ
Chain of PI3K-δ (PI3K(p1108/p857) (h)) (P27986 whole entry partner, the tested form may be a part): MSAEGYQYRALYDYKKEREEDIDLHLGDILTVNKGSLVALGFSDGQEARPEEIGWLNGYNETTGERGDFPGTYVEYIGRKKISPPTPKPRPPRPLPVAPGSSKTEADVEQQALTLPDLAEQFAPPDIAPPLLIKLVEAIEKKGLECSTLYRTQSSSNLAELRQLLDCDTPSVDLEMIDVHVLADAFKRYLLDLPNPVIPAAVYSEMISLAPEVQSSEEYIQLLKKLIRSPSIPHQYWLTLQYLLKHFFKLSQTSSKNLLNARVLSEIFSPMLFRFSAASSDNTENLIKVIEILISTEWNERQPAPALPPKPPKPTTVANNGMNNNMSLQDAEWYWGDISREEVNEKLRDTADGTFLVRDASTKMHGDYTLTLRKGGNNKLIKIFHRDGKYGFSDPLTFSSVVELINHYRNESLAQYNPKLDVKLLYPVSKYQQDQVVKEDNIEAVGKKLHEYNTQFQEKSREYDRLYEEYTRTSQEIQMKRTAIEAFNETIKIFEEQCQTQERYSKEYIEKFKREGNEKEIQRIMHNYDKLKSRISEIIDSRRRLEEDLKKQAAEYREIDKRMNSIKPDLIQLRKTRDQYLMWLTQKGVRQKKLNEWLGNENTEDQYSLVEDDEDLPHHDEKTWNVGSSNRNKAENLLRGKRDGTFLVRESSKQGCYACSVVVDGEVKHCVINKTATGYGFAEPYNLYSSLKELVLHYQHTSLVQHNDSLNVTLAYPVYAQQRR

Row | Compound | inhibition at 0.01 µM [1] | inhibition at 0.01 µM (DNA-PK(h))
1 | Cc1nc(-c2ccc(-c3cccc4c(Cl)c([C@H](C)Nc5ncnc6[nH]ccc(=O)c56)n(-c5ccccc5)c(=O)c34)cc2)no1 [Example 160, (S)-4-((1-(4-chloro-8-(4-(5-methyl-1,2,4-oxadiazol-3-yl)phenyl)-1-oxo-2-phenyl-1,2-dihydroisoquinolin-3-yl)ethyl)amino)pyrido[2,3-d]pyrimidin-5(8H)-one] | 94% | 74%
2 | C[C@H](Nc1ncnc2[nH]ccc(=O)c12)c1c(Cl)c2cccc(-c3ccc(-c4noc(C(C)(C)C)n4)cc3)c2c(=O)n1-c1ccccc1 [Example 161, (S)-4-((1-(8-(4-(5-(tert-butyl)-1,2,4-oxadiazol-3-yl)phenyl)-4-chloro-1-oxo-2-phenyl-1,2-dihydroisoquinolin-3-yl)ethyl)amino)pyrido[2,3-d]pyrimidin-5(8H)-one] | 24% | 7%
3 | C[C@H](Nc1ncnc2[nH]ccc(=O)c12)c1c(Cl)c2cccc(-c3ccc(OC4CCOCC4)nc3)c2c(=O)n1-c1ccccc1 [Example 162, (S)-4-((1-(4-chloro-1-oxo-2-phenyl-8-(6-((tetrahydro-2H-pyran-4-yl)oxy)pyridin-3-yl)-1,2-dihydroisoquinolin-3-yl)ethyl)amino)pyrido[2,3-d]pyrimidin-5(8H)-one] | 81% | 63%
4 | C[C@H](Nc1ncnc2[nH]ccc(=O)c12)c1c(Cl)c2cccc(-c3ccc(OCC4CC4)nc3)c2c(=O)n1-c1ccccc1 [Example 163, (S)-4-((1-(4-chloro-8-(6-(cyclopropylmethoxy)pyridin-3-yl)-1-oxo-2-phenyl-1,2-dihydroisoquinolin-3-yl)ethyl)amino)pyrido[2,3-d]pyrimidin-5(8H)-one] | 70% | 45%
5 | C[C@H](Nc1ncnc2[nH]ccc(=O)c12)c1c(Cl)c2cccc(-c3ccc(OCc4ccccc4)nc3)c2c(=O)n1-c1ccccc1 [Example 164, (S)-4-((1-(8-(6-(benzyloxy)pyridin-3-yl)-4-chloro-1-oxo-2-phenyl-1,2-dihydroisoquinolin-3-yl)ethyl)amino)pyrido[2,3-d]pyrimidin-5(8H)-one] | 46% | 20%
6 | C[C@H](Nc1ncnc2[nH]ccc(=O)c12)c1c(Cl)c2cccc(-c3ccc(S(C)(=O)=O)cc3)c2c(=O)n1-c1ccccc1 [Example 165, (S)-4-((1-(4-chloro-8-(4-(methylsulfonyl)phenyl)-1-oxo-2-phenyl-1,2-dihydroisoquinolin-3-yl)ethyl)amino)pyrido[2,3-d]pyrimidin-5(8H)-one] | 96% | 91%
7 | C[C@H](Nc1ncnc2[nH]ccc(=O)c12)c1c(Cl)c2cccc(-c3ccc(C(=O)O)cc3)c2c(=O)n1-c1ccccc1 [Example 166, (S)-4-(4-chloro-1-oxo-3-(1-((5-oxo-5,8-dihydropyrido[2,3-d]pyrimidin-4-yl)amino)ethyl)-2-phenyl-1,2-dihydroisoquinolin-8-yl)benzoic acid] | 59% | 67%
8 | CNC(=O)c1ccc(-c2cccc3c(Cl)c([C@H](C)Nc4ncnc5[nH]ccc(=O)c45)n(-c4ccccc4)c(=O)c23)cc1 [Example 167, (S)-4-(4-chloro-1-oxo-3-(1-((5-oxo-5,8-dihydropyrido[2,3-d]pyrimidin-4-yl)amino)ethyl)-2-phenyl-1,2-dihydroisoquinolin-8-yl)-N-methylbenzamide] | 44% | 81%
9 | C[C@H](Nc1ncnc2[nH]ccc(=O)c12)c1c(Cl)c2cccc(-c3cnc(C4CC4)nc3)c2c(=O)n1-c1ccccc1 [Example 168, (S)-4-((1-(4-chloro-8-(2-cyclopropylpyrimidin-5-yl)-1-oxo-2-phenyl-1,2-dihydroisoquinolin-3-yl)ethyl)amino)pyrido[2,3-d]pyrimidin-5(8H)-one] | 58% | 67%
10 | COc1cc(OC)cc(-c2cccc3c(Cl)c([C@H](C)Nc4ncnc5[nH]ccc(=O)c45)n(-c4ccccc4)c(=O)c23)c1 [Example 169, (S)-4-((1-(4-chloro-8-(3,5-dimethoxyphenyl)-1-oxo-2-phenyl-1,2-dihydroisoquinolin-3-yl)ethyl)amino)pyrido[2,3-d]pyrimidin-5(8H)-one] | 40% | 67%
11 | COc1cc(-c2cccc3c(Cl)c([C@H](C)Nc4ncnc5[nH]ccc(=O)c45)n(-c4ccccc4)c(=O)c23)cnc1OC [Example 170, (S)-4-((1-(4-chloro-8-(5,6-dimethoxypyridin-3-yl)-1-oxo-2-phenyl-1,2-dihydroisoquinolin-3-yl)ethyl)amino)pyrido[2,3-d]pyrimidin-5(8H)-one] | 35% | 66%
12 | COc1ncc(-c2cccc3c(Cl)c([C@H](C)Nc4ncnc5[nH]ccc(=O)c45)n(-c4ccccc4)c(=O)c23)cn1 [Example 171, (S)-4-((1-(4-chloro-8-(2-methoxypyrimidin-5-yl)-1-oxo-2-phenyl-1,2-dihydroisoquinolin-3-yl)ethyl)amino)pyrido[2,3-d]pyrimidin-5(8H)-one] | 58% | 62%
13 | C[C@H](Nc1ncnc2[nH]ccc(=O)c12)c1c(Cl)c2cccc(-c3ccc(N)nc3)c2c(=O)n1-c1ccccc1 [Example 172, (S)-4-((1-(8-(6-aminopyridin-3-yl)-4-chloro-1-oxo-2-phenyl-1,2-dihydroisoquinolin-3-yl)ethyl)amino)pyrido[2,3-d]pyrimidin-5(8H)-one] | 53% | 82%
14 | C[C@H](Nc1ncnc2[nH]ccc(=O)c12)c1c(Cl)c2cccc(-c3cccc(N4CCOCC4)c3)c2c(=O)n1-c1ccccc1 [Example 173, (S)-4-((1-(4-chloro-8-(3-morpholinophenyl)-1-oxo-2-phenyl-1,2-dihydroisoquinolin-3-yl)ethyl)amino)pyrido[2,3-d]pyrimidin-5(8H)-one] | 40% | 86%
15 | C[C@H](Nc1ncnc2[nH]ccc(=O)c12)c1c(Cl)c2cccc(-c3cnc(N4CCOCC4)nc3)c2c(=O)n1-c1ccccc1 [Example 174, (S)-4-((1-(4-chloro-8-(2-morpholinopyrimidin-5-yl)-1-oxo-2-phenyl-1,2-dihydroisoquinolin-3-yl)ethyl)amino)pyrido[2,3-d]pyrimidin-5(8H)-one] | 65% | 67%
16 | C[C@H](Nc1ncnc2[nH]ccc(=O)c12)c1c(Cl)c2cccc(-c3ccc(N4CCOCC4)nc3)c2c(=O)n1-c1ccccc1 [Example 175, (S)-4-((1-(4-chloro-8-(6-morpholinopyridin-3-yl)-1-oxo-2-phenyl-1,2-dihydroisoquinolin-3-yl)ethyl)amino)pyrido[2,3-d]pyrimidin-5(8H)-one] | 70% | 80%
17 | C[C@H](Nc1ncnc2[nH]ccc(=O)c12)c1c(Cl)c2cccc(-c3ccc(C4CCOCC4)cc3)c2c(=O)n1-c1ccccc1 [Example 176, (S)-4-((1-(4-chloro-1-oxo-2-phenyl-8-(4-(tetrahydro-2H-pyran-4-yl)phenyl)-1,2-dihydroisoquinolin-3-yl)ethyl)amino)pyrido[2,3-d]pyrimidin-5(8H)-one] | 19% | 48%
18 | COc1cc(-c2cccc3c(Cl)c([C@H](C)Nc4ncnc5[nH]ccc(=O)c45)n(-c4ccccc4)c(=O)c23)cc(OC)c1C [Example 177, (S)-4-((1-(4-chloro-8-(3,5-dimethoxy-4-methylphenyl)-1-oxo-2-phenyl-1,2-dihydroisoquinolin-3-yl)ethyl)amino)pyrido[2,3-d]pyrimidin-5(8H)-one] | 28% | 54%
19 | C[C@H](Nc1ncnc2[nH]ccc(=O)c12)c1c(Cl)c2cccc(-c3ccc([Si](C)(C)C)cc3)c2c(=O)n1-c1ccccc1 [Example 178, (S)-4-((1-(4-chloro-1-oxo-2-phenyl-8-(4-(trimethylsilyl)phenyl)-1,2-dihydroisoquinolin-3-yl)ethyl)amino)pyrido[2,3-d]pyrimidin-5(8H)-one] | 9% | -4%
20 | C[C@H](Nc1ncnc2[nH]ccc(=O)c12)c1c(Cl)c2cccc(-c3ccc(N4CCN(C)CC4)cc3)c2c(=O)n1-c1ccccc1 [Example 179, (S)-4-((1-(4-chloro-8-(4-(4-methylpiperazin-1-yl)phenyl)-1-oxo-2-phenyl-1,2-dihydroisoquinolin-3-yl)ethyl)amino)pyrido[2,3-d]pyrimidin-5(8H)-one] | 86% | 91%
21 | CC(C)Oc1cc(-c2cccc3c(Cl)c([C@H](C)Nc4ncnc5[nH]ccc(=O)c45)n(-c4ccccc4)c(=O)c23)ccn1 [Example 180, (S)-4-((1-(4-chloro-8-(2-isopropoxypyridin-4-yl)-1-oxo-2-phenyl-1,2-dihydroisoquinolin-3-yl)ethyl)amino)pyrido[2,3-d]pyrimidin-5(8H)-one] | 83% | 59%
22 | C[C@H](Nc1ncnc2[nH]ccc(=O)c12)c1c(Cl)c2cccc(-c3ccc(C(F)(F)F)nc3)c2c(=O)n1-c1ccccc1 [Example 181, (S)-4-((1-(4-chloro-1-oxo-2-phenyl-8-(6-(trifluoromethyl)pyridin-3-yl)-1,2-dihydroisoquinolin-3-yl)ethyl)amino)pyrido[2,3-d]pyrimidin-5(8H)-one] | 101% | 61%

— patent publication US20230072683A1, “PYRIDO-PYRIMIDIN DERIVATIVES AND PHARMACEUTICAL COMPOSITION, FOR USE IN PREVENTING OR TREATING PI3 KINASE RELATED DISEASES, COMPRISING SAME AS ACTIVE INGREDIENT” (BORYUNG PHARMACEUTICAL CO., LTD, priority 2019, published 2023)
